Measured values as given in paper PMC3681905, “Anti-Influenza Activity of C60 Fullerene Derivatives” (PLoS ONE, 2013).
Where two headings read alike, the source gives them in different places.

Columns and labels:
[1] = test system: influenza A virus A/PR/8/34 (H1N1); assay: microbe, parasite or virus in culture; assay type: cell-based; details: for IC50: read-out: IC50 H1N1 PR8 strain
[2] = test system: influenza A virus (A/PR/8/34 (H1N1)); assay type: cell-based; details: 100 µM, A/PR8/34 (H1N1), western blotting
[3] = biological target: full-length PA protein of influenza A RNA polymerase (Influenza A virus, UniProt P03433); assay: in vitro PA endonuclease assay with recombinant full-length PA protein (M13 mp18 digestion); assay type: biochemical, influenza A virus (A/PR/8/34 (H1N1)); details: 10 µM fullerene derivative; Fig. 3C
From the text: We expressed the recombinant full-length PA protein by using a baculovirus to infect Sf9 insect cells (Fig. 3A) and purified it using a Ni-agarose and HiTrap-Q column (Fig. 3B). […] Then, we tested the 12 fullerene derivatives using this same assay. The fullerene derivatives 2–5, 7, 8, 10, and 11 inhibited the endonuclease activity of full-length PA (Fig. 3C), which is consistent with the results for the PA endonuclease domain (Fig. 2C). The M13 mp18 band in the no. 12-treated lane was degraded (Fig. 3C lane 14), the band in the no.
The cDNA fragment corresponding to the full-length protein-coding region of PA was amplified by PCR [38] from pBMSA-PA using the primers PA_start_TOPO ([…]), PA stop ([…]), PA_mid_anti ([…]), and PA_mid_TOPO ([…]). The amplified product was then subcloned into the pENTR/D-TOPO plasmid (Gateway®, Life Technologies™, Carlsbad, CA, USA) using topoisomerase I cloning. The resulting construct was then converted to pDEST10-PA using the clonase (Fig. 3A). The plasmid was transfected into Sf9 insect cells using the helper virus. The resultant baculovirus was again transfected into Sf9 cells. The expressed full-length PA protein was purified using Ni^2+-agarose and a HiTrap Q FF column (GE Healthcare) with the AKTA prime plus system (Fig. 3B).
(§1) Influenza A RNA polymerase PA endonuclease activity assays were performed as described by Dias et al. with some modifications [12]–[16]. Briefly, the pH was lowered from 8.0 to 7.3, and 1 µg M13 mp18 single-stranded circular phage DNA was used as the substrate. A total of 0.25 µg recombinant PA endonuclease domain or full-length PA protein were added to 100 µL assay buffer for each reaction (the final concentration of the protein was approximately 0.1 µM). For the fullerene derivative nuclease assay, no PA protein was added at this step. The fullerene derivatives (summarized in Fig. 1) were then added to the reaction, and the products were analyzed by agarose electrophoresis and stained with ethidium bromide.

[4] = test system: influenza A virus A/Aichi/2/68 (H3N2); assay: microbe, parasite or virus in culture; assay type: cell-based; details: for IC50: read-out: IC50 H3N2 Aichi strain
[5] = biological target: PA N-terminal endonuclease domain (residues 1–220) of influenza A RNA polymerase (Influenza A virus, UniProt P03433); assay: in vitro PA endonuclease assay with recombinant PA endonuclease domain (M13 mp18 digestion, agarose electrophoresis); assay type: biochemical, influenza A virus (A/PR/8/34 (H1N1)); details: Fig. 2C; for inhibition of the digestion of M13 mp18 by the PA endonuclease domain: 10 µM fullerene derivative
Method: For the in vitro PA endonuclease assay, we expressed and purified a recombinant influenza PA endonuclease domain (1–220 residues; Fig. 2A, B) using bacteria as described previously [15]–[17]. For the assay, we incubated 0.1 µM recombinant PA endonuclease domain with 1 or 10 µM of each fullerene derivative (Fig. 2C). The PA endonuclease domain digested M13 mp18 circular single-stranded DNA in vitro (Fig. 2C, lanes 1 and 2) [12]–[16], and we investigated whether any of the fullerene derivatives could inhibit this activity. […] This is the first study to report that fullerene derivatives can inhibit the activity of influenza enzymes. Fullerene derivative no.
The influenza A virus (A/PR/8/34 (H1N1)) RNA polymerase PA plasmid, pBMSA-PA, was obtained from the DNA bank at Riken BioResource Center (Tsukuba, Japan; originally deposited by Susumu Nakada). The cDNA fragment corresponding to the PA N-terminal endonuclease domain (residues 1–220; Fig. 2A) was amplified by polymerase chain reaction (PCR) from pBMSA-PA. The amplified product was subcloned into the pET28a (+) plasmid (Novagen, Madison, WI, USA). The induction of recombinant protein expression was achieved by the addition of isopropyl-D-thiogalactopyranoside, and this was followed by purification using Ni^2+-agarose. The recombinant PA endonuclease domain protein was further purified to near homogeneity (Fig. 2B) using a HiTrapQ-FF column (GE Healthcare, Buckinghamshire, UK).
as §1

[6] = parameters: method as in PMID 14643333; details: cited from earlier work
[7] = parameters: method as in PMID 14643333; details: cited from earlier work; remark: listed apart in the source
[8] = test system: M13 mp18 single-stranded circular phage DNA; assay: fullerene derivative nuclease assay in the absence of PA protein; assay type: biochemical; details: 10 µM; absence of PA endonuclease; M13 mp18 substrate; Fig. 4
MDCK cells = details: 12.5 to 100 µM, 24 h post-incubation
[9] = 0.1 µM recombinant PA endonuclease domain
[10] = Influenza A virus, H3N2, MDCK, 24 h

Compound | number of NP-positive cells in comparison with the control (DMSO) [1] | expression levels of influenza A NP and NS1 proteins compared with DMSO-treated cells [2] | inhibition of the endonuclease activity of full-length PA (M13 mp18 band) [3] | inhibition of the digestion of M13 mp18 by the PA endonuclease domain [5, 9] | IC50 ([1]; Influenza A virus, MDCK, 24 h) [µM] | IC50 [4, 10] [µM] | also measured
Oc1cc2c(cc1O)CC13c4c5c6c7c8c9c(c%10c%11c1c1c4c4c%12c5c5c6c6c8c8c%13c9c9c%10c%10c%11c%11c1c1c4c4c%12c%12c5c5c6c8c6c8c%13c9c9c%10c%10c%11c1c1c4c4c%12c5c6c5c8c9c%10c1c45)C73C2 (centres unmarked) [no. 1, 1,4-dihydro-6,7-dihydroxy [60]fullerenonaphthlene] | comparable | comparable | slightly inhibited | no or weak inhibitory activity | – | – | solubility in water (solubility in water): relatively low; IC50 H1N1 PR8 strain [1]: could not be calculated; IC50 H3N2 Aichi strain [4]: could not be calculated; number of NP-positive cells in comparison with the DMSO [4]: comparable
O=C(O)CN1C(C(=O)O)C23c4c5c6c7c8c9c(c%10c%11c2c2c4c4c%12c5c5c6c6c8c8c%13c9c9c%10c%10c%11c%11c2c2c4c4c%12c%12c5c5c6c8c6c8c%13c9c9c%10c%10c%11c2c2c4c4c%12c5c6c5c8c9c%10c2c45)C73C1C(=O)O (centres unmarked) [no. 4, 1-carboxymethyl [60]fullerenopyrrolidine-2,5-dicarboxylic acid] | – | – | – | – | 70 | 91 | –
O=C(O)CN1CCN(CC(=O)O)C23c4c5c6c7c8c9c(c%10c%11c2c2c4c4c%12c5c5c6c6c8c8c%13c9c9c%10c%10c%11c%11c2c2c4c4c%12c%12c5c5c6c8c6c8c%13c9c9c%10c%10c%11c2c2c4c4c%12c5c6c5c8c9c%10c2c45)C713 (centres unmarked) [no. 7, [60]fullerenopiperazine-1,4-diacetic acid] | – | slightly reduced | inhibited | significantly inhibited | > 100 | > 100 | –
1,1,1′,1′-tetramethyl [60]fullerenodipyrrolidinium diiodide [no. 6] | – | reduced | – | no or weak inhibitory activity | – | – | antiproliferative activity [6]: antiproliferative and antibacterial activity; IC50 [1]: 20 µM; antiviral effects against the influenza A virus (overall conclusion) ([1]; summary of immunostaining and western blotting): strongest antiviral activity; IC50 [4]: 31 µM; antibacterial activity [7]: antiproliferative and antibacterial activity; nuclease activity of the fullerene derivative by itself [8]: significant nuclease activity; mobility shift of M13 mp18 ([5]; lane 13): caused a mobility shift
COC1Cc2cccc(c2)Oc2c(O)cccc2CCc2ccc(cc2)Oc2cc1cc(O)c2O (centres unmarked) [Marchantin E, reference compound] | – | reduced | – | – | 43 | 53 | cell viability vs DMSO-treated cells (MTT) (MDCK cells): not significantly different
CCN1C(C(=O)O)C23c4c5c6c7c8c9c(c%10c%11c2c2c4c4c%12c5c5c6c6c8c8c%13c9c9c%10c%10c%11c%11c2c2c4c4c%12c%12c5c5c6c8c6c8c%13c9c9c%10c%10c%11c2c2c4c4c%12c5c6c5c8c9c%10c2c45)C73C1C(=O)O (centres unmarked) [no. 9, 1-ethyl [60]fullerenopyrrolidine-2,5-dicarboxylic acid] | comparable | comparable | slightly inhibited | no or weak inhibitory activity | – | – | IC50 H1N1 PR8 strain [1]: could not be calculated; IC50 H3N2 Aichi strain [4]: could not be calculated; number of NP-positive cells in comparison with the DMSO [4]: comparable
CCOC(=O)CN1C(C(=O)O)C23c4c5c6c7c8c9c(c%10c%11c2c2c4c4c%12c5c5c6c6c8c8c%13c9c9c%10c%10c%11c%11c2c2c4c4c%12c%12c5c5c6c8c6c8c%13c9c9c%10c%10c%11c2c2c4c4c%12c5c6c5c8c9c%10c2c45)C73C1C(=O)OCC (centres unmarked) [no. 10, 1-ethoxycarbonylmethyl [60]fullerenopyrrolidine-2,5-dicarboxylic acid 2-ethyl ester] | slightly decreased | slightly reduced | inhibited | significantly inhibited | > 100 | > 100 | –
O=C(O)C1NC(c2ccccc2)C23c4c5c6c7c8c9c(c%10c%11c2c2c4c4c%12c5c5c6c6c8c8c%13c9c9c%10c%10c%11c%11c2c2c4c4c%12c%12c5c5c6c8c6c8c%13c9c9c%10c%10c%11c2c2c4c4c%12c5c6c5c8c9c%10c2c45)C713 (centres unmarked) [no. 11, 5-phenyl [60]fullerenopyrrolidine-2-carboxylic acid] | significantly reduced | reduced | inhibited | significantly inhibited | 44 | > 100 | –
CC(C)C1NC(C(=O)O)C23c4c5c6c7c8c9c(c%10c%11c2c2c4c4c%12c5c5c6c6c8c8c%13c9c9c%10c%10c%11c%11c2c2c4c4c%12c%12c5c5c6c8c6c8c%13c9c9c%10c%10c%11c2c2c4c4c%12c5c6c5c8c9c%10c2c45)C713 (centres unmarked) [no. 5, 5-isopropyl [60]fullerenopyrrolidine-2-carboxylic acid] | – | reduced | – | – | 37 | > 100 | –
[60]fullerenotricyclopropane-1,1,1′,1′,1′′,1′′-hexacarboxylic acid [no. 8] | – | slightly reduced | inhibited | significantly inhibited | – | – | IC50 [1]: 37 µM; IC50 [4]: > 100 µM
CN1CC23c4c5c6c7c8c9c(c%10c%11c2c2c4c4c%12c5c5c6c6c8c8c%13c9c9c%10c%10c%11c%11c2c2c4c4c%12c%12c5c5c6c8c6c8c%13c9c9c%10c%10c%11c2c2c4c4c%12c5c6c5c8c9c%10c2c45)C73C1c1cc[n+](C)cc1 (centres unmarked) [no. 12, 4-(1′-methyl [60]fullerenopyrrolidin-2′-yl)-1-methylpyridinium iodide] | significantly reduced | slightly reduced | degraded | – | – | – | IC50 [1]: 78 µM; IC50 [4]: 63 µM; nuclease activity of the fullerene derivative by itself [8]: weaker nuclease activity; inhibition of the digestion of M13 mp18 by the PA endonuclease domain ([5]; […]): slightly inhibited
